Experimental data as given in patent US8012963B2, “3,4-dihydro-2H-benzo[1,4]oxazine and thiazine derivatives as CETP inhibitors” (Janssen Pharmaceutica N.V., priority 2006, dated 2011).
“And” between values parts separate entries of the source, which are not always exact repeats. Identical values can stand only once.

Molecular target: T1, CETP (Homo sapiens, UniProt P11597)
T1 construct: from tissue; host or cells: human plasma from normal volunteers
T1 sequence (P11597 18-493): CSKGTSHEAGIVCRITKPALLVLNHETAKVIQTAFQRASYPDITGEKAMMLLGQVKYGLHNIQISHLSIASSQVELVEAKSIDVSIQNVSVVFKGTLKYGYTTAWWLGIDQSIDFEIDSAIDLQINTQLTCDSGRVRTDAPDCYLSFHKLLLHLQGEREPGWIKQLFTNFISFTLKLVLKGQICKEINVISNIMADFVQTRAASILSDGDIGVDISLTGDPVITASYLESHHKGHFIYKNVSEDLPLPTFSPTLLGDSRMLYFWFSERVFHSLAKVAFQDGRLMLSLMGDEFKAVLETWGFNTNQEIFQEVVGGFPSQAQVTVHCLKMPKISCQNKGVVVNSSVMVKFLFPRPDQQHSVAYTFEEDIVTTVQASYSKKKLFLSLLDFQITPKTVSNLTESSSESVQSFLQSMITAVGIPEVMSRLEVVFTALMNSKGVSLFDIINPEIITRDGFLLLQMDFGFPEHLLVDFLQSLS
Test: CETP in vitro assay ([3H]CE-HDL transfer, Amersham kit TRKQ7005; modified protocol in human plasma)
Assay type: biochemical
Conditions: multiple values = multiple measurements; for inhibition at 1 µM / % Inhibition @ 1 μM: 1 μM compound
Outline: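 Normal-volunteer human plasma was incubated ≥4 hr at 37 °C with approx. 25 μg/ml [3H]CE-HDL and compound in DMSO, with a 4 °C blank for non-specific transfer. HDL was separated by Dextralip/MgCl2 precipitation and centrifugation, then supernatant radioactivity counted. IC50 came from % control versus concentration.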

inhibition at 1 µM [%] | % Inhibition @ 1 μM | IC50 | SMILES
91 | 96% | 94 nM | O[C@@H](CN1c2cccc(-c3cc(F)c(F)c(F)c3)c2OC[C@@H]1c1cccc(OC(F)(F)F)c1)C(F)(F)F [Compound 82, 4H-1,4-Benzoxazine-4-ethanol, 2,3-dihydro-3-[3-(trifluoromethoxy)phenyl]-8-[3,4,5-(trifluoro)phenyl]-α-(trifluoromethyl)-, (3S,αS)—]
13 | – | – | OC[C@@H](O)CN1c2cccc(-c3cccc(OC(F)(F)F)c3)c2OC[C@H]1c1cccc(OC(F)(F)C(F)F)c1 [Compound 48, 1,2-Propanediol, 3-[(3R)-2,3-dihydro-3-[3-(1,1,2,2-tetrafluoroethoxy)phenyl]-8-[3-(trifluoromethoxy)phenyl]-4H-1,4-benzoxazin-4-yl]-, (2S)—]
8 | – | – | CCc1ccsc1C1COc2c(-c3cccc(OC(F)(F)F)c3)cccc2N1CC(O)C(F)(F)F (stereo not drawn) [Compound 87, 3-[3-(3-Ethyl-thiophen-2-yl)-8-(3-trifluoromethoxy-phenyl)-2,3-dihydro-benzo[1,4]oxazin-4-yl]-1,1,1-trifluoro-propan-2-ol]
– | 0% | – | CC(C)(C)C(=O)CC1COc2c(-c3cccc(OC(F)(F)F)c3)cccc2N1CC(O)C(F)(F)F (stereo not drawn) [Compound 57, 3,3-Dimethyl-1-[4-(3,3,3-trifluoro-2-hydroxy-propyl)-8-(3-trifluoromethoxy-phenyl)-3,4-dihydro-2H-benzo[1,4]oxazin-3-yl]-butan-2-one]
– | 17% | – | COc1ccc(C2COc3c(-c4cccc(OC(F)(F)F)c4)cccc3N2CC(O)C(F)(F)F)s1 (stereo not drawn) [Compound 63, 1,1,1-Trifluoro-3-[3-(5-methoxy-thiophen-2-yl)-8-(3-trifluoromethoxy-phenyl)-2,3-dihydro-benzo[1,4]oxazin-4-yl]-propan-2-ol]
– | 37% | – | OC(CN1c2cccc(-c3cccc(OC(F)(F)F)c3)c2OCC1c1cccc(C(F)(F)F)c1)C(F)(F)F (stereo not drawn) [Compound 70, 1,1,1-Trifluoro-3-[8-(3-trifluoromethoxy-phenyl)-3-(3-trifluoromethyl-phenyl)-2,3-dihydro-benzo[1,4]oxazin-4-yl]propan-2-ol]
34 | 24% | 560 nM | CC(C)(O)CN1c2cccc(-c3cccc(OC(F)(F)F)c3)c2OCC1c1cccc(OC(F)(F)C(F)F)c1 (stereo not drawn) [Compound 49, 2-Methyl-1-[3-[3-(1,1,2,2-tetrafluoro-ethoxy)-phenyl]-8-(3-trifluoromethoxy-phenyl)-2,3-dihydro-benzo[1,4]oxazin-4-yl]-propan-2-ol]
76 | – | 460 nM | O[C@H](CN1c2cccc(-c3cc(F)cc(F)c3)c2OC[C@@H]1c1cccc(OC(F)(F)C(F)F)c1)C(F)(F)F [Compound 73, 4H-1,4-Benzoxazine-4-ethanol, 8-(3,5-difluorophenyl)-2,3-dihydro-3-[3-(1,1,2,2-tetrafluoroethoxy)phenyl]-α-(trifluoromethyl)-, (3S,αR)—]
– | 0% | – | CCc1ccc(C2COc3c(-c4cccc(OC(F)(F)F)c4)cccc3N2CC(O)C(F)(F)F)s1 (stereo not drawn) [Compound 59, 3-[3-(5-Ethyl-thiophen-2-yl)-8-(3-trifluoromethoxy-phenyl)-2,3-dihydro-benzo[1,4]oxazin-4-yl]-1,1,1-trifluoro-propan-2-ol]
– | 1% | – | OCCCC1COc2c(-c3cccc(OC(F)(F)F)c3)cccc2N1CC(O)C(F)(F)F (stereo not drawn) [Compound 54, 3-[4-(3,3,3-Trifluoro-2-hydroxy-propyl)-8-(3-trifluoromethoxy-phenyl)-3,4-dihydro-2H-benzo[1,4]oxazin-3-yl]-propan-1-ol]
– | 6% | – | OC(CN1c2cccc(-c3cccc(OC(F)(F)F)c3)c2OCC1c1ccccc1OC(F)(F)C(F)F)C(F)(F)F (stereo not drawn) [Compound 91, 1,1,1-Trifluoro-3-[3-[2-(1,1,2,2-tetrafluoro-ethoxy)-phenyl]-8-(3-trifluoromethoxy-phenyl)-2,3-dihydro-benzo[1,4]oxazin-4-yl]-propan-2-ol]
– | 33% | – | OC(CN1c2cccc(-c3cccc(OC(F)(F)F)c3)c2OCC1c1ccc(OC(F)(F)C(F)F)cc1)C(F)(F)F (stereo not drawn) [Compound 93, 1,1,1-Trifluoro-3-[3-[4-(1,1,2,2-tetrafluoro-ethoxy)-phenyl]-8-(3-trifluoromethoxy-phenyl)-2,3-dihydro-benzo[1,4]oxazin-4-yl]propan-2-ol]
– | 10% | – | OC(CN1c2cccc(-c3cccc(OC(F)(F)F)c3)c2OCC1c1ccc(OC(F)(F)F)cc1)C(F)(F)F (stereo not drawn) [Compound 98, 1,1,1-Trifluoro-3-[3-(4-trifluoromethoxy-phenyl)-8-(3-trifluoromethoxy-phenyl)-2,3-dihydro-benzo[1,4]oxazin-4-yl]-propan-2-ol]
19 | – | – | COc1ccc(C2COc3c(-c4cccc(OC(F)(F)F)c4)cccc3N2CC(O)C(F)(F)F)s1 (stereo not drawn) [Compound 62, 1,1,1-Trifluoro-3-[3-(5-methoxy-thiophen-2-yl)-8-(3-trifluoromethoxy-phenyl)-2,3-dihydro-benzo[1,4]oxazin-4-yl]-propan-2-ol]
– | 3% | – | COc1ccsc1C1COc2c(-c3cccc(OC(F)(F)F)c3)cccc2N1CC(O)C(F)(F)F (stereo not drawn) [Compound 61, 1,1,1-Trifluoro-3-[3-(3-methoxy-thiophen-2-yl)-8-(3-trifluoromethoxy-phenyl)-2,3-dihydro-benzo[1,4]oxazin-4-yl]-propan-2-ol]

Second part, the compound before the results:

SMILES | inhibition at 1 µM [%] | % Inhibition @ 1 μM | IC50
C[C@@H](O)CN1c2cccc(-c3cccc(OC(F)(F)F)c3)c2OC[C@@H]1c1cccc(OC(F)(F)C(F)F)c1 [Compound 35, 4H-1,4-Benzoxazine-4-ethanol, 2,3-dihydro-α-methyl-3-[3-(1,1,2,2-tetrafluoroethoxy)phenyl]-8-[3-(trifluoromethoxy)phenyl]-, (3S,αR)—] | 47 | 52% | 26 nM and 117 nM and 121 nM
CS(=O)(=O)NCCN1c2cccc(-c3cccc(OC(F)(F)F)c3)c2OCC1c1cccc(OC(F)(F)C(F)F)c1 (stereo not drawn) [Compound 43, N-{2-[3-[3-(1,1,2,2-Tetrafluoro-ethoxy)-phenyl]-8-(3-trifluoromethoxy-phenyl)-2,3-dihydro-benzo[1,4]oxazin-4-yl]-ethyl}-methanesulfonamide] | 0 | – | –
COC(=O)N1c2cccc(-c3cccc(OC(F)(F)F)c3)c2OCC1c1cccc(OC(F)(F)C(F)F)c1 (stereo not drawn) [Compound 20, 3-[3-(1,1,2,2-Tetrafluoro-ethoxy)-phenyl]-8-(3-trifluoromethoxy-phenyl)-2,3-dihydro-benzo[1,4]oxazine-4-carboxylic acid methyl ester] | 16 | – | –
OCCN1c2cccc(-c3cccc(OC(F)(F)F)c3)c2OCC1c1cccc(OC(F)(F)C(F)F)c1 (stereo not drawn) [Compound 23, 2-[3-[3-(1,1,2,2-Tetrafluoro-ethoxy)-phenyl]-8-(3-trifluoromethoxy-phenyl)-2,3-dihydro-benzo[1,4]oxazin-4-yl]-ethanol] | 29 | – | –
CN1CCN(CCN2c3cccc(-c4cccc(OC(F)(F)F)c4)c3OCC2c2cccc(OC(F)(F)C(F)F)c2)CC1 (stereo not drawn) [Compound 31, 4-[2-(4-Methyl-piperazin-1-yl)-ethyl]-3-[3-(1,1,2,2-tetrafluoro-ethoxy)-phenyl]-8-(3-trifluoromethoxy-phenyl)-3,4-dihydro-2H-benzo[1,4]oxazine] | 17 | – | –
OC(CN1c2cccc(-c3cccc(OC(F)(F)F)c3)c2OCC1c1cccc(SC(F)(F)F)c1)C(F)(F)F (stereo not drawn) [Compound 15] | – | 67% and 69% | 360 nM
O[C@@H](CN1c2cccc(-c3cccc(OC(F)(F)F)c3)c2OC[C@@H]1c1cccc(OC(F)(F)F)c1)C(F)(F)F [Compound 9, 4H-1,4-Benzoxazine-4-ethanol, 2,3-dihydro-3,8-bis[3-(trifluoromethoxy)phenyl]-α-(trifluoromethyl)-, (3S,αS)—] | 68 | 72% and 67% | 71 nM and 195 nM
COCCN1c2cccc(-c3cccc(OC(F)(F)F)c3)c2OCC1c1cccc(OC(F)(F)C(F)F)c1 (stereo not drawn) [Compound 24, 4-(2-Methoxy-ethyl)-3-[3-(1,1,2,2-tetrafluoro-ethoxy)-phenyl]-8-(3-trifluoromethoxy-phenyl)-3,4-dihydro-2H-benzo[1,4]oxazine] | 25 | – | –
OC(CN1c2cccc(-c3cccc(OC(F)(F)F)c3)c2OCC1c1cccc(SC(F)(F)F)c1)C(F)(F)F (stereo not drawn) [Compound 16, 1,1,1-Trifluoro-3-[8-(3-trifluoromethoxy-phenyl)-3-(3-trifluoromethylsulfanyl-phenyl)-2,3-dihydro-benzo[1,4]oxazin-4-yl]-propan-2-ol] | – | 20% | –
FC(F)C(F)(F)Oc1cccc(C2COc3c(-c4cccc(OC(F)(F)F)c4)cccc3N2CCN2CCNCC2)c1 (stereo not drawn) [Compound 30, 4-(2-piperazin-1-yl-ethyl)-3-[3-(1,1,2,2-tetrafluoro-ethoxy)-phenyl]-8-(3-trifluoromethoxy-phenyl)-3,4-dihydro-2H-benzo[1,4]oxazine] | 0 | – | –
O[C@H](CN1c2cccc(-c3cccc(OC(F)(F)F)c3)c2OC[C@@H]1c1cccc(OC(F)(F)C(F)F)c1)C(F)(F)F [Compound 4, 4H-1,4-Benzoxazine-4-ethanol, 2,3-dihydro-3-[3-(1,1,2,2-tetrafluoroethoxy)phenyl]-8-[3-(trifluoromethoxy)phenyl]-α-(trifluoromethyl)-, (3S,αR)—] | 26 | – | –
